Test results from the NIST ThermoML archive (doi:10.1021/acs.jced.8b00536).
Numbers after ± are expanded uncertainties.

Columns and labels:
[1] = Crystal; DSC
[2] = Molar enthalpy of transition or fusion; conditions: Crystal; DSC

Row | SMILES | Triple point temperature [1] [K] | Molar enthalpy of transition or fusion [2] [kcal/mol]
1 | c1ccc2cc3cc4ccccc4cc3cc2c1 [2,3-benzanthracene] | 623.75 ± 1.2 | 8.94 ± 0.908
2 | c1ccc(N(c2ccc(-c3ccc(N(c4ccccc4)c4cccc5ccccc45)cc3)cc2)c2cccc3ccccc23)cc1 [N,N'-di(1-naphthyl)-N,N'-diphenyl benzidine] | 551.75 ± 1.2 | 14.1 ± 1.43
